According to patent publication US20090105217A1, “2-PHENYL-5-AMINO-1,3,4-OXADIAZOLES AND THEIR USE AS NICOTINIC ACETYLCHOLINE RECEPTOR LIGANDS” (priority 2007, published 2009):

What follows are compounds tested against T1, human α7 nAChR (Homo sapiens, UniProt P36544) (assay: α7 nAChR FLIPR (Fluorometric Imaging Plate Reader) Ca2+ assay, agonist EC50). Conditions: GH4C1 cells stably transfected with human α7 nAChR; Fluo-4 Ca2+ fluorescence; Examples 194 to 205 tested as the HCl salt; read-out: pEC50 value (negative logarithm of the agonist EC50) (converted).
T1 construct: host or cells: GH4C1 cells (pituitary tumor, immortalized cell line)
Assay type: cell-based
Outline: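 GH4C1 cells stably expressing human α7 nAChR, loaded with 2 μM Fluo-4 for 45–60 min at 37 °C in HEPES buffer pH 7.3 with 2 mM CaCl2 and 2.5 mM probenecid. Peak calcium fluorescence (ex 488, em 510–580 nm) after compound addition fitted for agonist EC50, reported as pEC50.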

T1 sequence (P36544 23-502): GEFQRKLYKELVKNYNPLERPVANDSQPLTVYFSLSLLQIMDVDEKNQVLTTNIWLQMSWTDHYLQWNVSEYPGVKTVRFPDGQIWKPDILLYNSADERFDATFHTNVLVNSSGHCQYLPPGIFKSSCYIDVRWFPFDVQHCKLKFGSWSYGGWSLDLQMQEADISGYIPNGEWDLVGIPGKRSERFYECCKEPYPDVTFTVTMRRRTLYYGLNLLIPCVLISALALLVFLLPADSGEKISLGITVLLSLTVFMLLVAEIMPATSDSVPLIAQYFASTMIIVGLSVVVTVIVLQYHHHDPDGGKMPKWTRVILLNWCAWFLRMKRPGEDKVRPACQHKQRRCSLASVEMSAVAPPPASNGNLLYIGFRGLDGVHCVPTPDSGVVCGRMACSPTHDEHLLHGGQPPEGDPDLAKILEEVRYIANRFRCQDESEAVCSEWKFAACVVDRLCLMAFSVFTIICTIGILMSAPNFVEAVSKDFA

EC50 [nM]	SMILES
≤ 100	COc1cc(NC(=O)c2ccccc2F)ccc1-c1nnc(NCCCCN2CCCC2)o1 [Example 127, 2-fluoro-N-[3-(methyloxy)-4-(5-{[4-(1-pyrrolidinyl)butyl]amino}-1,3,4-oxadiazol-2-yl)phenyl]benzamide]
≤ 1000	CC1(C)CCN(CCCNc2nnc(-c3ccc(NC(=O)c4ccccc4F)cc3)o2)CC1 [Example 135, N-[4-(5-{[3-(4,4-dimethyl-1-piperidinyl)propyl]amino}-1,3,4-oxadiazol-2-yl)phenyl]-2-fluorobenzamide]
≤ 1000	CCC(C)N(C)CCCNc1nnc(-c2ccc(NC(=O)c3ccccc3F)cc2)o1 (stereo not drawn) [Example 136, 2-fluoro-N-{4-[5-({3-[methyl(1-methylpropyl)amino]propyl}amino)-1,3,4-oxadiazol-2-yl]phenyl}benzamide]
≤ 1000	CN(CCCNc1nnc(-c2ccc(NC(=O)c3ccccc3F)cc2)o1)C1CCCC1 [Example 137, N-{4-[5-({3-[cyclopentyl(methyl)amino]propyl}amino)-1,3,4-oxadiazol-2-yl]phenyl}-2-fluorobenzamide]
≤ 100	COc1cc(NC(=O)c2ccccc2F)ccc1-c1nnc(NCCCCN2CCC(F)CC2)o1 [Example 145, 2-fluoro-N-[4-(5-{[4-(4-fluoro-1-piperidinyl)butyl]amino}-1,3,4-oxadiazol-2-yl)-3-(methyloxy)phenyl]benzamide]
≤ 1000	O=C(Nc1ccc(-c2nnc(NCCCN3CCCC3)o2)cc1)C1CCCCC1 [Example 146, N-[4-(5-{[3-(1-pyrrolidinyl)propyl]amino}-1,3,4-oxadiazol-2-yl)phenyl]cyclohexanecarboxamide]
≤ 100	O=C(Nc1ccc(-c2nnc(NCCCCN3CCCC3)o2)cc1)C1CCCCC1 [Example 147, N-[4-(5-{[4-(1-pyrrolidinyl)butyl]amino}-1,3,4-oxadiazol-2-yl)phenyl]cyclohexanecarboxamide]
≤ 1000	O=C(Nc1ccc(-c2nnc(NCCCCN3CCOCC3)o2)cc1)C1CCCCC1 [Example 148, N-[4-(5-{[4-(4-morpholinyl)butyl]amino}-1,3,4-oxadiazol-2-yl)phenyl]cyclohexanecarboxamide]
≤ 1000	CCN(CC)CCCNc1nnc(-c2ccc(NC(=O)C3CCCCC3)cc2)o1 [Example 149, N-[4-(5-{[3-(diethylamino)propyl]amino}-1,3,4-oxadiazol-2-yl)phenyl]cyclohexanecarboxamide]
≤ 1000	CCN(CC)CCCCNc1nnc(-c2ccc(NC(=O)C3CCCCC3)cc2)o1 [Example 150, N-[4-(5-{[4-(diethylamino)butyl]amino}-1,3,4-oxadiazol-2-yl)phenyl]cyclohexanecarboxamide]
≤ 100	O=C(Nc1ccc(-c2nnc(NCCCCN3CCCC3)o2)c(Cl)c1)c1ccccc1F [Example 153, N-[3-chloro-4-(5-{[4-(1-pyrrolidinyl)butyl]amino}-1,3,4-oxadiazol-2-yl)phenyl]-2-fluorobenzamide]
≤ 100	O=C(Nc1ccc(-c2nnc(NCCCCN3CCOCC3)o2)c(Cl)c1)c1ccccc1F [Example 154, N-[3-chloro-4-(5-{[4-(4-morpholinyl)butyl]amino}-1,3,4-oxadiazol-2-yl)phenyl]-2-fluorobenzamide]
≤ 1000	CCN(CC)CCCNc1nnc(-c2ccc(NC(=O)c3ccccc3F)cc2Cl)o1 [Example 155, N-[3-chloro-4-(5-{[3-(diethylamino)propyl]amino}-1,3,4-oxadiazol-2-yl)phenyl]-2-fluorobenzamide]
≤ 100	CCN(CC)CCCCNc1nnc(-c2ccc(NC(=O)c3ccccc3F)cc2Cl)o1 [Example 156, N-[3-chloro-4-(5-{[4-(diethylamino)butyl]amino}-1,3,4-oxadiazol-2-yl)phenyl]-2-fluorobenzamide]
≤ 1000	O=C(Nc1ccc(-c2nnc(NCCCN3CCCC3)o2)c(Cl)c1)C1CCCCC1 [Example 157, N-[3-chloro-4-(5-{[3-(1-pyrrolidinyl)propyl]amino}-1,3,4-oxadiazol-2-yl)phenyl]cyclohexanecarboxamide]
≤ 100	O=C(Nc1ccc(-c2nnc(NCCCCN3CCCC3)o2)c(Cl)c1)C1CCCCC1 [Example 158, N-[3-chloro-4-(5-{[4-(1-pyrrolidinyl)butyl]amino}-1,3,4-oxadiazol-2-yl)phenyl]cyclohexanecarboxamide]
≤ 1000	CCN(CC)CCCNc1nnc(-c2ccc(NC(=O)C3CCCCC3)cc2Cl)o1 [Example 159, N-[3-chloro-4-(5-{[3-(diethylamino)propyl]amino}-1,3,4-oxadiazol-2-yl)phenyl]cyclohexanecarboxamide]
≤ 1000	CCN(CC)CCCCNc1nnc(-c2ccc(NC(=O)C3CCCCC3)cc2Cl)o1 [Example 160, N-[3-chloro-4-(5-{[4-(diethylamino)butyl]amino}-1,3,4-oxadiazol-2-yl)phenyl]cyclohexanecarboxamide]

EC50 [nM]	SMILES
≤ 1000	O=C(Nc1ccc(-c2nnc(NCCCCN3CCOCC3)o2)c(Cl)c1)C1CCCCC1 [Example 161, N-[3-chloro-4-(5-{[4-(4-morpholinyl)butyl]amino}-1,3,4-oxadiazol-2-yl)phenyl]cyclohexanecarboxamide]
≤ 1000	O=C(Nc1ccc(-c2nnc(NCCCN3CCCCC3)o2)c(Cl)c1)C1CCCCC1 [Example 163, N-[3-chloro-4-(5-{[3-(1-piperidinyl)propyl]amino}-1,3,4-oxadiazol-2-yl)phenyl]cyclohexanecarboxamide]
≤ 100	O=C(Nc1ccc(-c2nnc(NCCCCN3CCCCC3)o2)c(Cl)c1)C1CCCCC1 [Example 164, N-[3-chloro-4-(5-{[4-(1-piperidinyl)butyl]amino}-1,3,4-oxadiazol-2-yl)phenyl]cyclohexanecarboxamide]
≤ 1000	O=C(Nc1ccc(-c2nnc(NCCCN3CCCC3)o2)c(Cl)c1)c1ccccc1F [Example 165, N-[3-chloro-4-(5-{[3-(1-pyrrolidinyl)propyl]amino}-1,3,4-oxadiazol-2-yl)phenyl]-2-fluorobenzamide]
≤ 1000	CCc1cc(NC(=O)c2ccccc2F)ccc1-c1nnc(NCCCN2CCOCC2)o1 [Example 167, N-[3-ethyl-4-(5-{[3-(4-morpholinyl)propyl]amino}-1,3,4-oxadiazol-2-yl)phenyl]-2-fluorobenzamide]
≤ 1000	CCc1cc(NC(=O)c2ccccc2F)ccc1-c1nnc(NCCCCN2CCCCC2)o1 [Example 168, N-[3-ethyl-4-(5-{[4-(1-piperidinyl)butyl]amino}-1,3,4-oxadiazol-2-yl)phenyl]-2-fluorobenzamide]
≤ 100	CCc1cc(NC(=O)c2ccccc2F)ccc1-c1nnc(NCCCN2CCN3CCC2CC3)o1 [Example 169, N-[4-(5-{[3-(1,4-diazabicyclo[3.2.2]non-4-yl)propyl]amino}-1,3,4-oxadiazol-2-yl)-3-ethylphenyl]-2-fluorobenzamide]
≤ 100	CCc1cc(NC(=O)c2ccccc2F)ccc1-c1nnc(NCCCCN2CCCC2)o1 [Example 170, N-[3-ethyl-4-(5-{[4-(1-pyrrolidinyl)butyl]amino}-1,3,4-oxadiazol-2-yl)phenyl]-2-fluorobenzamide]
≤ 100	CCc1cc(NC(=O)c2ccccc2F)ccc1-c1nnc(NCCCCN(CC)CC)o1 [Example 171, N-[4-(5-{[4-(diethylamino)butyl]amino}-1,3,4-oxadiazol-2-yl)-3-ethylphenyl]-2-fluorobenzamide]
≤ 100	CCc1cc(NC(=O)c2ccccc2F)ccc1-c1nnc(NCCCCN2CCOCC2)o1 [Example 172, N-[3-ethyl-4-(5-{[4-(4-morpholinyl)butyl]amino}-1,3,4-oxadiazol-2-yl)phenyl]-2-fluorobenzamide]
≤ 1000	CN1CCCN(CCCNc2nnc(-c3ccc(NC(=O)c4ccccc4F)cc3)o2)CC1 [Example 174, 2-fluoro-N-[4-(5-{[3-(4-methylhexahydro-1H-1,4-diazepin-1-yl)propyl]amino}-1,3,4-oxadiazol-2-yl)phenyl]benzamide]
≤ 1000	Cc1ccc(C(=O)Nc2ccc(-c3nnc(NCCCN4CCCCC4)o3)cc2)cc1 [Example 181, 4-methyl-N-[4-(5-{[3-(1-piperidinyl)propyl]amino}-1,3,4-oxadiazol-2-yl)phenyl]benzamide]
≤ 1000	Cc1cc(C(=O)Nc2ccc(-c3nnc(NCCCN4CCCCC4)o3)cc2)no1 [Example 183, 5-methyl-N-[4-(5-{[3-(1-piperidinyl)propyl]amino}-1,3,4-oxadiazol-2-yl)phenyl]-3-isoxazolecarboxamide]
≤ 1000	O=C(Nc1ccc(-c2nnc(NCCCN3CCCCC3)o2)cc1)c1ccco1 [Example 185, N-[4-(5-{[3-(1-piperidinyl)propyl]amino}-1,3,4-oxadiazol-2-yl)phenyl]-2-furancarboxamide]
≤ 1000	CCOc1cc(NC(=O)C2CCCCC2)ccc1-c1nnc(NCCCN2CCCCC2)o1 [Example 189, N-[3-(ethyloxy)-4-(5-{[3-(1-piperidinyl)propyl]amino}-1,3,4-oxadiazol-2-yl)phenyl]cyclohexane-carboxamide]
≤ 100	CCOc1cc(NC(=O)c2ccccc2)ccc1-c1nnc(NCCCN2CCCCC2)o1 [Example 190, N-[3-(ethyloxy)-4-(5-{[3-(1-piperidinyl)propyl]amino}-1,3,4-oxadiazol-2-yl)phenyl]benzamide]
≤ 1000	O=C(Nc1ccc(-c2nnc(NCCCN3CCCCC3)o2)cc1)C1CCOCC1 [Example 193, N-[4-(5-{[3-(1-piperidinyl)propyl]amino}-1,3,4-oxadiazol-2-yl)phenyl]tetrahydro-2H-pyran-4-carboxamide]
≤ 1000	O=C(Nc1ccc(-c2nnc(NCCCN3CCOCC3)o2)cc1)c1c(F)cccc1F [Example 194, 2,6-Difluoro-N-[4-(5-{[3-(4-morpholinyl)propyl]amino}-1,3,4-oxadiazol-2-yl)phenyl]benzamide]
